Values quoted from earlier work in patent US11958977B2, “Fluorescently labeled polysaccharide, preparation method therefor, and use thereof” (SUZHOU BAIYUAN GENT CO., LTD., priority 2018, dated 2024).
Where a name gives a salt, the structure may show the parent alone.

Details: Solvent: 0.1M H2SO4

SMILES: C=C[C@H]1C[N@@]2CC[C@H]1C[C@H]2[C@H](O)c1ccnc2ccc(OC)cc12 [quinine sulfate]
- Quantum yield of the reference compound: 0.56
